The text below walks through data of ChEMBL document CHEMBL1201862, “PubChem BioAssay data set” (2004).

Common to all, as to assay: NCI tumour cell line growth inhibition, 48 h
Assay [1] relates to HCT-116.
Assay [2] deals with KM12.
Assay [3] has as its system COLO 205.
Assay [4] concerns HCC 2998.
For assay [5], the system named is OVCAR-5.
Assay [6] has as its system RXF 393.
In assay [7] the test system is UACC-257.
The subject of assay [8] is OVCAR-3.
Assay [9] has as its system UO-31.
For assay [10], the system named is NCI-H23.
Assay [11] relates to SW-620.
Assay [12] relates to HOP-92.
For assay [13], the system named is HL-60.
Assay [14] concerns OVCAR-4.
Assay [15] relates to SNB-75.

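Interpolation was linear, between the two tested concentrations surrounding the appropriate level; five concentrations were tested over 48 hours in 96-well plates. GI50 marks 50% less growth.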 The source made the active and inactive calls. No stated cut-off is given here; in the data, active = GI50 up to about 1.1 µM and inactive = higher. Where only a bound is given, the exact number is not on record here.

Turning to `CC(C)(C)C1=CC(CCC(=O)Nc2ccccc2[N+](=O)[O-])=NC(S)N1` (stereo not given), the GI50 in [1], in [2], in assay [3], in [4], in [5] and in assay [6] was > 100 µM (inactive) throughout. Moreover, the GI50 in [7], in assay [8], in [9], in [10], in assay [11] and in assay [12] was > 100 µM (inactive) each time. The GI50 in assay [13] and in assay [14] was > 100 µM (inactive) throughout.
As to `S=C1CNC(=S)CN1`, the GI50 in assay [15], in assay [1], in assay [2], in assay [3], in [4] and in assay [5] was > 100 µM (inactive) each time. Further, the GI50 in assay [6], in assay [7], in assay [8], in assay [9], in assay [11] and in [12] was > 100 µM (inactive) in each case. For the same molecule, the GI50 in assay [13] and in [14] was > 100 µM (inactive) each time.
In the case of `Cc1ccc(S(=O)(=O)N/N=C/CN2C(=O)c3ccccc3C2=O)cc1`, the GI50 in [15], in assay [1], in assay [3], in [4], in assay [7] and in assay [9] was > 100 µM (inactive) in each case. The GI50 in assay [10], in assay [11], in [13] and in assay [14] was > 100 µM (inactive) in each case.
Consider `CNC(=O)C1CCc2nnc(-c3ccccc3)n21` (stereo not given), for which the GI50 in assay [15], in [1], in assay [2], in assay [3], in assay [4] and in assay [6] was > 100 µM (inactive) throughout. The GI50 in [7], in [8], in [9], in [11], in assay [13] and in assay [14] was > 100 µM (inactive) in each case.
For `O=[N+]([O-])c1ccc(Cl)c(C2SCc3nc4ccccc4n32)c1` (stereo not given), the GI50 in [15] was 24.9 µM (inactive); in [1], 31.6 µM (inactive); in assay [2] it was 29 µM (inactive); in assay [3], 37.6 µM (inactive); in assay [4], 71.4 µM (inactive); in [5] it was 27.4 µM (inactive). Besides, the GI50 is 33 µM (inactive) in assay [6]; 28.1 µM (inactive) in [7]; 36.6 µM (inactive) in assay [8]; 17.3 µM (inactive) in [9]; 33.2 µM (inactive) in assay [10]; 35 µM (inactive) in [11]. Moreover, the GI50 in [12] is 16.1 µM (inactive); in assay [13] it was 23.2 µM (inactive).
Turning to `CN(C)CCn1cnc2ncccc2c1=O`, the GI50 in assay [15], in assay [1], in assay [2], in assay [3], in assay [4] and in [5] was > 100 µM (inactive) in each case. The GI50 in [6], in assay [8], in assay [9], in assay [10], in assay [11] and in [12] was > 100 µM (inactive) each time. Further, the GI50 in [14] is > 100 µM (inactive).
As to `O=C(O)c1cc(Cl)cc(NC(=O)C(Cl)Cl)c1Cl`, the GI50 in assay [15], in assay [1], in assay [2], in assay [3], in assay [4] and in assay [6] was > 100 µM (inactive) in each case. For the same molecule, the GI50 in assay [7], in assay [8], in assay [9], in assay [10], in assay [11] and in [13] was > 100 µM (inactive) each time. Further, the GI50 in [14] was > 100 µM (inactive).
With `O=C(NC1CCCC1=O)c1ccccc1` (stereo not given), the GI50 in assay [15] is 31.5 µM (inactive); in assay [1], > 100 µM (inactive); in assay [2] it was > 100 µM (inactive); in assay [5], > 100 µM (inactive); in assay [6] it was > 100 µM (inactive); in [7] it was > 100 µM (inactive). Further, the GI50 in assay [8], in assay [9], in assay [10], in assay [11], in [12] and in [13] was > 100 µM (inactive) in each case. For the same molecule, the GI50 in assay [14] is > 100 µM (inactive).
As for `CC(=O)Nc1ccc(/C=C/C(=O)c2sc(-c3nc(C)c(C(=O)/C=C/c4ccc(NC(C)=O)cc4)s3)nc2C)cc1`, the GI50 in assay [1], in [2], in assay [3], in assay [4], in [5] and in assay [6] was > 100 µM (inactive) each time. The GI50 in [7] was > 100 µM (inactive); in [8], > 100 µM (inactive); in assay [9], 97.5 µM (inactive); in [10] it was > 100 µM (inactive); in assay [11], > 100 µM (inactive); in assay [13] it was > 100 µM (inactive). Moreover, the GI50 in assay [14] was > 100 µM (inactive).
As to `Cn1c(=O)n(C2(C)CSC2)c2ccccc21`, the GI50 in assay [15], in [1], in assay [2], in assay [3], in assay [4] and in assay [5] was > 100 µM (inactive) in each case. Further, the GI50 in [6], in assay [7], in [9], in assay [10], in assay [11] and in assay [12] was > 100 µM (inactive) each time. Also, the GI50 in [13] and in assay [14] was > 100 µM (inactive) in each case.
For the molecule `O=C(CC1(O)C(=O)Nc2ccccc21)c1ccc(F)cc1` (stereo not given), the GI50 in assay [15], in [1], in assay [3], in [5], in assay [6] and in assay [7] was > 100 µM (inactive) throughout. In addition, the GI50 in assay [8], in assay [9], in assay [10], in assay [11], in assay [12] and in assay [13] was > 100 µM (inactive) each time. In [14], the GI50 is > 100 µM (inactive).
Regarding `CC(c1ccc2c(c1)CCC1C2CC2OC23CC=CC(=O)[C@]13C)C1C[C@]2(C)O[C@]2(C)[C@H](O)O1` (stereo not given in full), the GI50 is 58.9 µM (inactive) in assay [15]; 0.256 µM (active) in assay [1]; 36.6 µM (inactive) in assay [2]; 71.9 µM (inactive) in [3]; 83.4 µM (inactive) in [4]; > 100 µM (inactive) in [5]. Also, the GI50 in assay [6] is 11.7 µM (inactive); in assay [7], 11.1 µM (inactive); in [8] it was 19.2 µM (inactive); in assay [9], 10.5 µM (inactive); in assay [10], 0.219 µM (active); in [11] it was 25.3 µM (inactive). The GI50 in assay [12] was 92.9 µM (inactive); in assay [13], 1.96 µM (inactive).
On to `Nc1ncn(C2C=C(CO)C(O)C2O)c(=O)n1` (stereo not given), for which the GI50 in assay [15] was > 100 µM (inactive); in [1], 40 µM (inactive); in [2] it was > 100 µM (inactive); in [3], 29.3 µM (inactive); in assay [4], 89.7 µM (inactive); in [6], > 100 µM (inactive). Besides, the GI50 in assay [7] is > 100 µM (inactive); in assay [8], > 100 µM (inactive); in [9], 92.7 µM (inactive); in [11] it was 57.5 µM (inactive); in [13], 31.6 µM (inactive); in assay [14] it was 85.9 µM (inactive).
As to `COc1ccc(/C=C2\CCc3ccccc3C2=O)cc1OC`, the GI50 was 21.4 µM (inactive) in [15]; 17.9 µM (inactive) in assay [1]; 19.6 µM (inactive) in [2]; 19.5 µM (inactive) in assay [3]; 45.5 µM (inactive) in assay [4]; 67.3 µM (inactive) in [5]. Moreover, the GI50 was 18.9 µM (inactive) in [7]; 33.6 µM (inactive) in [8]; 29.2 µM (inactive) in assay [9]; 19.6 µM (inactive) in [10]; 28.4 µM (inactive) in assay [11]; 17.8 µM (inactive) in [14].
On to `Nc1nc(=O)n([C@@H]2CC[C@H](CO)O2)cc1F`, for which the GI50 in assay [15] was > 100 µM (inactive); in assay [2], > 100 µM (inactive); in [3], > 100 µM (inactive); in assay [4] it was 42.8 µM (inactive); in [5], > 100 µM (inactive); in assay [6], > 100 µM (inactive). Besides, the GI50 in [7], in [8], in [9], in [10], in assay [11] and in [12] was > 100 µM (inactive) in each case. The GI50 in assay [13] and in [14] was > 100 µM (inactive) throughout.
